Results reported in US7772228B2, “Method for treatment of bacterial infections with once or twice-weekly administered rifalazil” (priority 1998, dated 2010).
Read-outs that look alike come from different tables or passages of the source.

Legend:
[1] = Clinical trial 005, rifalazil concentration in plasma of tuberculosis patients; assay type: in vivo, human; conditions: for maximum concentration of the drug in plasma: six hours; for concentration at 3 h / concentration at 11 day / concentration at 15 day / concentration at 0 h / concentration at 2 h / concentration at 5 h / concentration at 9 h / concentration at 12 h / concentration at 24 h / concentration at 48 h / concentration at 72 h: human, plasma; for concentration at 3 h: three hours; for concentration at 11 day: Day 11; for concentration at 15 day: Day 15; for concentration at 0 h: Hour 0; for concentration at 2 h: Hour 2; for concentration at 5 h: Hour 5; for concentration at 9 h: Hour 9; for concentration at 12 h: Hour 12; for concentration at 24 h: Hour 24; for concentration at 48 h: Hour 48; for concentration at 72 h: Hour 72
Description: Definite diagnosis and evaluation of treatment efficacy requires direct examination of sputum for the presence of M. tuberculosis. The extent of M. tuberculosis infection is determined by number of bacteria able to form colonies and is expressed as colony forming units. When the number of colony forming units (CFU) is high, the infection is unhindered. When the CFU decreases, the number of active M. tuberculosis bacteria decreases. The CFU, typically expressed as Log10, have therefore important diagnostic and treatment evaluative value.
Table 21 summarizes the plasma concentrations data of rifalazil measured in patients that received rifalazil at zero hour. The data are separated into 2 groups and are identified as INH+10 mg rifalazil (Group 3) and INH+25 mg rifalazil (Group 4). The concentration of rifalazil in plasma is presented in ng/mL and are shown as a timecourse (hours and days) wherein values were determined at several times over the two weeks of the study.

M. avium = experiment: Rabbit model of M. avium infection; assay type: in vivo; conditions: compared to controls
[2] = 10 mg, INH + 10 mg KRM, read-out: Rifalazil Concentration in Plasma, Max
[3] = 10 mg, INH + 10 mg KRM, read-out: Rifalazil Concentration in Plasma, Med
[4] = 10 mg, INH + 10 mg KRM, read-out: Rifalazil Concentration in Plasma, Min
[5] = 25 mg, INH + 25 mg KRM, read-out: Rifalazil Concentration in Plasma, Max
[6] = 25 mg, INH + 25 mg KRM, read-out: Rifalazil Concentration in Plasma, Mean
[7] = 25 mg, INH + 25 mg KRM, read-out: Rifalazil Concentration in Plasma, Med
[8] = 25 mg, INH + 25 mg KRM, read-out: Rifalazil Concentration in Plasma, Min
[9] = INH + 10 mg KRM, read-out: Rifalazil Concentration in Plasma, Mean
[10] = INH + 10 mg KRM, read-out: Rifalazil Concentration in Plasma, Max
[11] = INH + 10 mg KRM, read-out: Rifalazil Concentration in Plasma, Med
[12] = INH + 10 mg KRM, read-out: Rifalazil Concentration in Plasma, Min
[13] = INH + 25 mg KRM, read-out: Rifalazil Concentration in Plasma, Max
[14] = INH + 25 mg KRM, read-out: Rifalazil Concentration in Plasma, Mean
[15] = INH + 25 mg KRM, read-out: Rifalazil Concentration in Plasma, Med
[16] = INH + 25 mg KRM, read-out: Rifalazil Concentration in Plasma, Min

With `CO[C@H]1/C=C/O[C@@]2(C)Oc3c(C)c(O)c4c(=O)c(c5oc6cc(N7CCN(CC(C)C)CC7)cc(O)c6nc-5c4c3C2=O)NC(=O)/C(C)=C\C=C\[C@H](C)[C@H](O)[C@@H](C)[C@@H](O)[C@@H](C)[C@H](OC(C)=O)[C@@H]1C` [Rifalazil, 3′-hydroxy-5′-(4-isobutyl-1-piperazinyl)benzoxasinorifamycin] the “maximum concentration of the drug in plasma” value ([1]; 10 mg rifalazil) was 12.68 ng/mL, the “maximum concentration of the drug in plasma” value ([1]; 25 mg rifalazil) was 28.47 ng/mL and the drug in plasma ([1]; 72 hours (3 days)) was “still measurable amount of drug in plasma”. The “Rifalazil Concentration in Plasma, Max” value ([1]; INH + 10 mg KRM, Day 4 M-0) was 0 ng/mL, the “Rifalazil Concentration in Plasma, Mean” value ([1]; INH + 10 mg KRM, Day 4 M-0) was 0 ng/mL and the “Rifalazil Concentration in Plasma, Med” value ([1]; INH + 10 mg KRM, Day 4 M-0) was 0 ng/mL. The “Rifalazil Concentration in Plasma, Min” value ([1]; INH + 10 mg KRM, Day 4 M-0) was 0 ng/mL, the “Rifalazil Concentration in Plasma, Max” value ([1]; INH + 10 mg KRM, Day 8 M-4) was 21.9 ng/mL and the “Rifalazil Concentration in Plasma, Mean” value ([1]; INH + 10 mg KRM, Day 8 M-4) was 18.31 ng/mL. The “Rifalazil Concentration in Plasma, Min” value ([1]; INH + 10 mg KRM, Day 8 M-4) was 9.7 ng/mL, the “Rifalazil Concentration in Plasma, Max” value ([1]; INH + 25 mg KRM, Day 4 M-0) was 0 ng/mL and the “Rifalazil Concentration in Plasma, Mean” value ([1]; INH + 25 mg KRM, Day 4 M-0) was 0 ng/mL. For the same molecule, the “Rifalazil Concentration in Plasma, Med” value ([1]; INH + 25 mg KRM, Day 4 M-0) was 0 ng/mL, the “Rifalazil Concentration in Plasma, Min” value ([1]; INH + 25 mg KRM, Day 4 M-0) was 0 ng/mL and the “Rifalazil Concentration in Plasma, Max” value ([1]; INH + 25 mg KRM, Day 8 M-4) was 41.0 ng/mL. The “Rifalazil Concentration in Plasma, Mean” value ([1]; INH + 25 mg KRM, Day 8 M-4) was 29.02 ng/mL, the “Rifalazil Concentration in Plasma, Med” value ([1]; INH + 25 mg KRM, Day 8 M-4) was 28.5 ng/mL and the “Rifalazil Concentration in Plasma, Min” value ([1]; INH + 25 mg KRM, Day 8 M-4) was 11.7 ng/mL. It also gave a concentration at 3 h ([1]; 10 mg, 10 mg of rifalazil) of 9.7 ng/mL, a concentration at 11 day [1, 2] of 2.5 ng/mL and a concentration at 11 day [1, 3] of 1.4 ng/mL. For the same molecule, the concentration at 11 day [1, 4] was 2 ng/mL, the concentration at 15 day [1, 2] was 0 ng/mL and the concentration at 15 day [1, 3] was 3 ng/mL. It also gave a concentration at 15 day [1, 4] of 0 ng/mL, a concentration at 3 h ([1]; 25 mg, 25 mg rifalazil) of 15.9 ng/mL and a concentration at 11 day [1, 5] of 9.1 ng/mL. It also gave a concentration at 11 day [1, 6] of 4.12 ng/mL, a concentration at 11 day [1, 7] of 3.3 ng/mL and a concentration at 11 day [1, 8] of 2.2 ng/mL. For the same molecule, the concentration at 15 day [1, 5] was 3.4 ng/mL, the concentration at 15 day [1, 6] was 0.95 ng/mL and the concentration at 15 day [1, 7] was 0 ng/mL. The concentration at 15 day [1, 8] was 0 ng/mL, the concentration at 11 day [1, 9] was 2.4 ng/mL and the concentration at 15 day [1, 9] was 3 ng/mL. It also gave a concentration at 0 h [1, 10] of 0 ng/mL, a concentration at 0 h [1, 9] of 0 ng/mL and a concentration at 0 h [1, 11] of 3 ng/mL. It also gave a concentration at 0 h [1, 12] of 0 ng/mL, a concentration at 2 h [1, 10] of 20.3 ng/mL and a concentration at 2 h [1, 9] of 9.7 ng/mL. The concentration at 2 h [1, 11] was 9 ng/mL, the concentration at 2 h [1, 12] was 0 ng/mL and the concentration at 5 h [1, 10] was 22.7 ng/mL. It also gave a concentration at 5 h [1, 9] of 12.5 ng/mL, a concentration at 5 h [1, 11] of 11.9 ng/mL and a concentration at 5 h [1, 12] of 4.2 ng/mL. For the same molecule, the concentration at 9 h [1, 10] was 19.2 ng/mL, the concentration at 9 h [1, 9] was 9.75 ng/mL and the concentration at 9 h [1, 11] was 10.3 ng/mL. The concentration at 9 h [1, 12] was 3 ng/mL, the concentration at 12 h [1, 10] was 11.9 ng/mL and the concentration at 12 h [1, 9] was 10.7 ng/mL. For the same molecule, the concentration at 12 h [1, 11] was 11.4 ng/mL, the concentration at 12 h [1, 12] was 6.2 ng/mL and the concentration at 24 h [1, 10] was 5 ng/mL. It also gave a concentration at 24 h [1, 9] of 3.6 ng/mL, a concentration at 24 h [1, 11] of 3.55 ng/mL and a concentration at 24 h [1, 12] of 2.3 ng/mL. It also gave a concentration at 48 h [1, 10] of 2.5 ng/mL, a concentration at 48 h [1, 9] of 1.4 ng/mL and a concentration at 48 h [1, 11] of 2.5 ng/mL. It also gave a concentration at 48 h [1, 12] of 2.2 ng/mL, a concentration at 72 h [1, 10] of 2.2 ng/mL and a concentration at 72 h [1, 11] of 1 ng/mL. The concentration at 72 h [1, 12] was 0 ng/mL, the concentration at 0 h [1, 13] was 0 ng/mL and the concentration at 0 h [1, 14] was 0 ng/mL. The concentration at 0 h [1, 15] was 0 ng/mL, the concentration at 0 h [1, 16] was 0 ng/mL and the concentration at 2 h [1, 13] was 26.4 ng/mL. It also gave a concentration at 2 h [1, 14] of 15.3 ng/mL, a concentration at 2 h [1, 15] of 11.4 ng/mL and a concentration at 2 h [1, 16] of 2.3 ng/mL. For the same molecule, the concentration at 5 h [1, 13] was 42.7 ng/mL, the concentration at 5 h [1, 14] was 25.5 ng/mL and the concentration at 5 h [1, 15] was 30.9 ng/mL. It also gave a concentration at 5 h [1, 16] of 5.5 ng/mL, a concentration at 9 h [1, 13] of 38.2 ng/mL and a concentration at 9 h [1, 14] of 21.6 ng/mL. It also gave a concentration at 9 h [1, 15] of 22.1 ng/mL, a concentration at 9 h [1, 16] of 4.2 ng/mL and a concentration at 12 h [1, 13] of 20.5 ng/mL. The concentration at 12 h [1, 14] was 16.3 ng/mL, the concentration at 12 h [1, 15] was 18.1 ng/mL and the concentration at 12 h [1, 16] was 11.1 ng/mL. For the same molecule, the concentration at 24 h [1, 13] was 12.2 ng/mL, the concentration at 24 h [1, 14] was 7.72 ng/mL and the concentration at 24 h [1, 15] was 6.7 ng/mL. For the same molecule, the concentration at 24 h [1, 16] was 4.3 ng/mL, the concentration at 48 h [1, 13] was 5.3 ng/mL and the concentration at 48 h [1, 14] was 2.15 ng/mL. The concentration at 48 h [1, 15] was 3.9 ng/mL, the concentration at 48 h [1, 16] was 0 ng/mL and the concentration at 72 h [1, 13] was 3.2 ng/mL. For the same molecule, the concentration at 72 h [1, 14] was 2.15 ng/mL, the concentration at 72 h [1, 15] was 2.7 ng/mL and the concentration at 72 h [1, 16] was 0 ng/mL. The “bacterial load on organs” value (M. avium) was “reduced the bacterial load on organs compared to controls”.
